Source: patent publication US7192928B1, “T cell antigen receptor peptides” (Northern Sydney & Central Coast Area Health Services, priority 1996, dated 2007)
Where “and” joins values, the source holds several entries; their conditions need not be identical. Equal values may be shown once. Read-outs that look alike come from different tables or passages of the source. Marks after values point to notes of the source that are not given here.

How the values were obtained:
[1] = test system: adjuvant induced arthritis in rats; experiment: Adjuvant-induced arthritis in rats; type: in vivo, rat; details: for Summary of in vivo adjuvant induced arthritis results: TREATMENT: 7 mg peptide with 1 mg MTB, rats with arthritis/rats in group; for efficacy against MTB-induced arthritis: section (ii); for efficacy against MTB-induced arthritis / rats with mild disease / minor symptoms / rats showing no symptoms of arthritis: 7 mg peptide; for effectiveness in adjuvant induced arthritis model, summary statement: summary of Table 4; for rats showing no symptoms of arthritis: duration of the experiment
[2] = Solubility of the peptides in stock solutions; type: physicochemical; details: for appearance of peptide stock solution: stock solutions 1 mg/ml or 1 mM
Experimental: The solubility of the peptides was variable. At the concentration of the stock solutions, 1 mg/ml or 1 mM, most peptide solutions looked clear. […] Therefore, the true concentration of peptides in solution in the culture wells would be less than those nominated in the case of these partially soluble peptides. Core peptide could be dissolved at 2 mg/ml, but was not completely soluble at 5 mg/ml. […] The vehicle for the peptides, except M and N, was 0.1% acetic acid which gave 0.01%, i.e., 1.75 mM in the wells. […] In these experiments, effects of peptides could still be determined by comparison with the vehicle control. The 0.05M sodium carbonate buffer, used to dissolve peptides M and N, was not as detrimental to line T-cells as acetic acid.

[3] = test system: rat T-cell line specific to MTB; experiment: Antigen-stimulated proliferation of MTB-specific T-cell line (3H-thymidine incorporation); type: cell-based; details: for counts relative to vehicle control / effect on T-cell proliferation: 100 μM
[4] = test system: rat primed lymph node cells (PLNC); details: for effect on antigen-stimulated T-cell proliferation: PLNC Experiment 2, FIG. 3, peptides alone and in combination; for inhibition of antigen-stimulated T-cell proliferation, overall statement: PLNCs and T-cell lines, summary over experiments
[5] = peptides 7 mg/rat, CS 50 mg/kg, DXM 2 mg/kg
[6] = T-Cell Line Experiment 2, FIG. 5
[7] = PLNC Experiment 1, FIG. 2, peptide 100 μg/ml
[8] = section (iii), 5 rats per group
[9] = respective buffers (0.1% acetic acid; 0.05M sodium carbonate for M and N)
[10] = section (i), summary of Table 3 experiments

In the case of H-LGILLLKV-OH [I, L G I L L L K V], the “EFFECT on adjuvant induced arthritis” value [1, 5] is reported as “Protective” and the “appearance of peptide stock solution” value [2] is reported as “turbid or had undissolved particles”.
With “H-LRILLLGV-OH [Peptide H, L R I L L L G V]” the “counts relative to vehicle control” value [3, 6] was 66%, the “EFFECT on adjuvant induced arthritis” value [1, 5] was “Protective” and the “appearance of peptide stock solution” value [2] was “turbid or had undissolved particles”. For the same compound, the “effect on T-cell proliferation” value [4, 7] was “appeared to reduce T-cell proliferation”.
For “H-AGFNLLMT-OH [Peptide O, A G F N L L M T]”, the “Summary of in vivo adjuvant induced arthritis results: TREATMENT” value (“Summary … TREATMENT” below) [1] was 1/10*, the “efficacy against MTB-induced arthritis” value [1] was “most effective at ameliorating the development of MTB-induced arthritis” and the “effectiveness in adjuvant induced arthritis model, summary statement” value (“effectiveness” for short) [1] was “very effective”. For the same compound, the “appearance of peptide stock solution” value [2] was “turbid or had undissolved particles”.
With “H-LLMTLRLWSS-OH [Peptide P, L L M T L R L W S S]” the “effect on T-cell proliferation” value [3, 6] was “marginal effect”, the “Summary … TREATMENT” value [1] was 0/5 and the “rats that developed minor symptoms” value ([1]; Table 4, of 5 treated rats) was “(4 developed minor symptoms)”. The “protection” value ([1]; section (iii)) was “protective to a variable extent”, the “rats with mild disease / minor symptoms” value [1, 8] was “four” and the “rats showing no symptoms of arthritis” value [1, 8] was “one”. For the same compound, the “effectiveness” value [1] was “variable response in the delay of disease induction and severity”, the “appearance of peptide stock solution” value [2] was “turbid or had undissolved particles” and the “effect on T-cell proliferation” value [4, 7] was “most inhibitory”. For the same compound, the “effect on antigen-stimulated T-cell proliferation” value [4] was “showed activity”.
With “H-IIVTDVIATL-OH [Peptide M, I I V T D V I A T L]” the “effect on T-cell proliferation” value [3, 6] was “no effects”, the “Summary … TREATMENT” value [1] was 2/5 and the “protection” value ([1]; section (iii)) was “protective to a variable extent”. The “rats with mild disease / minor symptoms” value [1, 8] was “Two”, the “rats showing no symptoms of arthritis” value [1, 8] was “One” and the “rats of the group killed” value ([1]; section (iii), 5 rats per group, on days 19 and 21) was 2. For the same compound, the “effectiveness” value [1] was “variable response in the delay of disease induction and severity”, the solubility in words [2] was “soluble in their respective buffers” and the “effect on antigen-stimulated T-cell proliferation” value [4] was “did not reduce proliferation”.
With `C[C@@H]1C[C@H]2[C@@H]3CCC4=CC(=O)C=C[C@]4(C)[C@@]3(F)[C@@H](O)C[C@]2(C)[C@@]1(O)C(=O)CO` [DXM*, dexamethasone, reference compound] the “EFFECT on adjuvant induced arthritis” value [1, 5] was “No effect+”.
For “H-SSDVPCDATLT-OH [K, S S D V P C D A T L T]”, the “Summary … TREATMENT” value [1] was 5/10, the “efficacy against MTB-induced arthritis” value [1] was “comparable in efficacy” and the “effectiveness” value [1] was “variable response in the delay of disease induction and severity”. For the same compound, the solubility in words [2, 9] was “soluble in their respective buffers”.
In the case of “H-YGRADCGITS-OH [Peptide J, Y G R A D G G I T S]”, the “Summary … TREATMENT” value [1] is reported as 3/10*, the “efficacy against MTB-induced arthritis” value [1] is reported as “comparable in efficacy” and the “effectiveness” value [1] is reported as “very effective”.
With H-LDILLLEV-OH [E, L D I L L L E V] the “EFFECT on adjuvant induced arthritis” value [1, 5] was “No effect” and the “EFFECT on adjuvant induced arthritis” value [1, 10] was “no effect”.
For “H-FLFAEIVSI-OH [Peptide N, F L F A E I V S I]”, the “effect on T-cell proliferation” value [3, 6] was “no effects”, the “Summary … TREATMENT” value [1] was 0/5* and the “protection” value ([1]; section (iii)) was “protective to a variable extent”. For the same compound, the “rats showing no symptoms of arthritis” value [1, 8] was “All five”, the “effectiveness” value [1] was “very effective” and the solubility in words [2, 9] was “soluble in their respective buffers”. The “effect on antigen-stimulated T-cell proliferation” value [4] was “did not reduce proliferation”.
In the case of H-LGILLLGV-OH [C, L G I L L L G V], the “EFFECT on adjuvant induced arthritis” value [1, 5] is reported as “No effect” and the “EFFECT on adjuvant induced arthritis” value [1, 10] is reported as “no effect”.
For “H-IVIVDICIT-OH [Peptide L, I V I V D I C I T]”, the “Summary … TREATMENT” value [1] was 0/5*, the weight loss ([1]; section (iv), FIG. 10, 7 mg peptide L, five rats) was “none of the peptide L treated group lost weight” and the “paw and ankle thickness” value ([1]; section (iv), FIG. 11(a–d), 7 mg peptide L) was “significantly decreased compared to control”. The “effectiveness” value [1] was “very effective”.
With H-GLRILLLKV-OH [CP, G L R I L L L K V] the “counts (tritiated thymidine incorporation)” value ([3]; T-Cell Line Experiment 1, FIG. 4, 100 μg/ml, vehicle control approximately 30000) was “approximately 18000 cpm”, the “counts relative to the control level” value ([3]; T-Cell Line Experiment 1, FIG. 4, 200 μg/ml) was “about 25%” and the “counts relative to vehicle control” value [3, 6] was “approximately 33%”. For the same compound, the “counts relative to the control” value ([3]; T-Cell Line Experiment 2, FIG. 5, 200 μM) was roughly 16%, the “animals with no evidence of arthritis” value ([1]; first experiment, three rats per group, after 18 days, suspended in adjuvant, base of tail) was 2/3 and the “EFFECT on adjuvant induced arthritis” value [1, 5] was “Protective”. For the same compound, the “EFFECT on adjuvant induced arthritis” value [1, 10] was “Best results”, the “degree of inhibition of antigen-stimulated T-cell proliferation” value [4] was 50-9096% and the “inhibition at different concentrations in the wells” value ([4]; 20 μl of 1, 2 or 5 mg/ml stock added to the wells (0.1, 0.2, 0.5 mg/ml)) was 0.2 mg/ml CP was more inhibitory than 0.1 mg/ml and 0.5 mg/ml was less effective. For the same compound, the “counts relative to the vehicle control (T-cell proliferation)” value ([4]; PLNC Experiment 1, FIG. 2, peptide 100 μg/ml, MTB 100 μg/ml) was “approximately 10%”, the “effect on antigen-stimulated T-cell proliferation” value [4] was “reduced antigen-stimulated T-cell proliferation, whether freshly dissolved or stored for more than three months at 4 °C” and the “inhibition of antigen-stimulated T-cell proliferation, overall statement” value [4] was “most effective”. The “inhibition of antigen-stimulated T-cell proliferation, overall statement” value ([4]; listed as core peptide) was “effective at inhibiting antigen-stimulated T-cell proliferation” and the “proliferation reduced by” value ([4]; first experiment) was “go”.
With H-ILLLKVAG-OH [B, I L L L K V A G] the “EFFECT on adjuvant induced arthritis” value [1, 5] was “Protective” and the “EFFECT on adjuvant induced arthritis” value [1, 10] was “Best results”.
With “H-MGLRILLL-OH [Peptide A, M G L R I L L L]” the “EFFECT on adjuvant induced arthritis” value [1, 5] was “Protective”.
